# Measurements: article PMC10609873, “Antidiabetic, Antihyperlipidemic, and Antioxidant Evaluation of Phytosteroids from Notholirion thomsonianum (Royle) Stapf” (Plants, 2023)
# Experiments:
# [1] = biological target: α-glucosidase (Saccharomyces cerevisiae, UniProt P53341); assay: in vitro α-glucosidase inhibition; assay type: biochemical
# Method: The alpha-glucosidase inhibitory effects of our compounds were determined via a reported protocol. Sample dilutions (50 µL) and 100 µL of α-glucosidase solution (0.5 U/mL) were mixed. Then, 600 μL of phosphate buffer (0.1 M, pH 6.9) was added, and the mixture was incubated at 37 °C for 15 min. After this, 5 mM substrate (p-nitrophenyl α-D-glucopyranoside) solution (20 µL) in 0.1 M phosphate buffer (pH 6.9) was added and again incubated under the same conditions. Sodium carbonate was added to stop the reaction; at 405 nm, the absorbance was noted using a spectrophotometer. A mixture without α-glucosidase served as the blank, and a mixture without the test compound served as the control. The percent enzyme inhibition was calculated as:(1) % Alpha glucosidase inhibition=Control abs.−Sample abs./Control abs.×100
# [2] = test system: α-amylase; assay: in vitro α-amylase inhibition; assay type: biochemical
# Method: The inhibitory activity of our compounds against alpha-amylase enzymes was determined as per the previously reported protocols. Test samples of 100 µL were mixed with an enzyme solution (200 µL) and 100 µL of phosphate buffer (pH 6.9, 2 mM). The mixture was then incubated at 25 °C for 20 min, followed by the addition of 100 µL of starch solution (1%). The same procedure was followed for positive controls, where phosphate buffer was added instead of […] (200 µL). After 5 min of incubation, 3,5-dinitrosalicylic acid reagent (500 µL) was added to the test samples and control group. The mixtures were incubated again for 10 min; at 580 nm, the absorbance was recorded using a spectrophotometer. The alpha-amylase percent inhibition was calculated as:(2) % Amylase inhibition=1−Test sample abs./Control abs.×100
# [3] = DPPH free radical scavenging assay
# Method: To evaluate the antioxidant potential of our compounds, the DPPH free radical scavenging assay developed by Brand William was used. The DPPH solution was made by dissolving 20 mg of DPPH in 100 mL of methanol, and its absorbance at 517 nm was adjusted to 0.75. Then, 2 mL of DPPH solution was added to 2 mL of sample dilutions ranging from 31.25 to 500 µg/mL, and the mixture was incubated at room temperature in the dark for 15 min. […] (3) % Inhibition=Control abs.−Sample abs./Control abs.×100
# [4] = test system: rats; assay: acute toxicity study in rats; assay type: in vivo; conditions: dose started at 200 and increased up to 2000 mg/kg body weight
# Method: In experimental animals, acute toxicity studies were performed to determine the safe dose of our test compounds for in vivo studies.
# [5] = test system: alloxan-induced diabetic rats; assay: body weight of fasting rats during treatment; assay type: in vivo; conditions: NtSt01 1.0 mg/kg, glibenclamide 0.5 mg/kg
# Method: Group 3: This group was the alloxan-induced diabetic group, which was treated with 0.5 mg/kg of the standard drug, glibenclamide.
# Group 4: This group was the alloxan-induced diabetic group, which was treated with 1.0 mg/kg of NtSt01 intraperitoneally.
# [6] = test system: alloxan-induced diabetic rats; assay: vital organ weights of fasting rats after treatment; assay type: in vivo; conditions: after the 28-day experiment; NtSt01 1.0 mg/kg, glibenclamide 0.5 mg/kg
# Source text: The experimental rats were purchased from the Breeding House of National Institute Health, Islamabad, Pakistan. The average weights of these rats ranged from 220 to 250 g. The animals were handled as per the guidelines of the University of […] animals By-Laws 2008 (Scientific Procedure Issue I) under the approval of the ethical committee via letter No. DREC-140/B. The food, water, and light/dark cycles provided to animals were observed by the ethical committee. The animals were euthanized as per the AVMA guidelines version 2020. The animals were subjected to slow exposure of halothane vapors to induce anesthesia. There was a gradual increase in the dosage of halothane vapors, which eventually euthanized the animals. […] Group 3: […] Group 4: […]
# [7] = test system: alloxan-induced diabetic rats; assay: lipid profile (antilipidemic effect); assay type: in vivo; conditions: NtSt01 1.0 mg/kg, glibenclamide 0.5 mg/kg; for LDL / S.Cholesterol: reference range 10–54; for S.Triglycerides: reference range 26–145; for HDL: reference range up to 50
# Method: Standard methods were used for the analysis of total cholesterol, serum triglycerides, low-density lipoprotein (LDL), and high-density lipoprotein (HDL). Briefly, […] of serum sample was added to […] solution of triglyceride. The mixture was incubated for 10 min at 37 °C and the absorbance was recorded at 546 nm. To monitor blood cholesterol, diagnostic kits were utilized following the specifications of the manufacturer. […] For HDL concentration determination, 200 µL of serum sample and 500 µL of HDL solution were combined, and the mixture was allowed to stand at room temperature for 5 min. Again, the mixture was mixed and subjected to further centrifugation for 5 min, followed by supernatant collection. Then, 50 µL of supernatant of HDL was added to 500 µL of solution of cholesterol; the mixture was incubated at 37 °C for 5 min. Then, at 546 nm, the sample absorbance was measured. Similarly, LDL was determined in all groups following the manufacturer’s specifications. LDL = Total cholesterol […] − Triglycerides/5(4)
# [8] = test system: alloxan-induced diabetic rats; assay: renal and liver function tests (biochemical profile of blood); conditions: NtSt01 1.0 mg/kg, standard glibenclamide; for S.Creatinine: reference range 0.4–0.8; for SGPT(ALT): reference range 17–30; for S.ALK.Phosphatase: reference range 30–130; for S.bilurubin: reference range up to 1.0
# Method: Renal functions tests were performed to determine blood urea and serum creatinine [38]. To determine blood urea, enzyme reagent 1 (1000 µL) and 10 µL of serum were mixed together and incubated for 5 min at 25 °C, followed by the addition of 1000 µL of reagent 2 to the mixture. After 5 min, the absorbance was recorded at 578 nm.
# Serum glutamate pyruvate transaminase (SGPT/ALT), alkaline phosphatase (ALP), and bilirubin tests were performed following standard protocols using micro lab 300 and tecno plus biochemistry analyzers [39]. To perform the SGPT/ALT test, 50 µL of serum sample was added to 500 µL of reagent (400 µL of reagent 1 and 100 µL of reagent 2). […] To determine ALP, a kit was used following the manufacturer’s specifications: 10 µL of serum sample was added to 500 µL of reagent (400 µL of reagent 1 and 100 µL of reagent 2). […] Similarly, the concentration of bilirubin was evaluated using standard protocols. Four types of reagents, R1, R2, R3, and R4, were used in this test. R2 (25 µL) was added to R1 (100 µL). After this, 100 µL of serum sample and 500 µL of R3 were added and allowed to stand at 25 °C for 5 min. Then, 500 µL of R4 was added; at 25 °C for 5 min, the mixture was incubated. The absorbance of the sample was recorded at 546 nm.
# Sequence of α-glucosidase (P53341 whole entry): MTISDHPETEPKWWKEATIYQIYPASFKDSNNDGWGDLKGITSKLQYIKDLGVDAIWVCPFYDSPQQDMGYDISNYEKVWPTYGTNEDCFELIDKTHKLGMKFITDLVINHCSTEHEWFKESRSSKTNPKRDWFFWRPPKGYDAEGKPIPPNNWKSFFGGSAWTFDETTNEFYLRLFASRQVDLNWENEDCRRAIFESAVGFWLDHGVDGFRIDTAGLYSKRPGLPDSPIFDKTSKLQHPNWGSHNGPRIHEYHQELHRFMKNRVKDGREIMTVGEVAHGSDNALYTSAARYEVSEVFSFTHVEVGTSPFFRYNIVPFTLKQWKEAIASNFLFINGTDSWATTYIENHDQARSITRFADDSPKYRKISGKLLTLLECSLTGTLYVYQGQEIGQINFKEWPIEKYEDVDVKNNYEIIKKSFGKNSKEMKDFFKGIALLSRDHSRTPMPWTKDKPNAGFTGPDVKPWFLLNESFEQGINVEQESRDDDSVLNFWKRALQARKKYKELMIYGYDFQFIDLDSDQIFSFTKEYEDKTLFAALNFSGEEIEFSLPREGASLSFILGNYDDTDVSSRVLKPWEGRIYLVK
Structure (SMILES),Percent Inhibition (Mean ± SEM) ([2]; 500 μg/mL),Percent Inhibition (Mean ± SEM) ([2]; 31.25 μg/mL),Percent Inhibition (Mean ± SEM) ([2]; 62.50 μg/mL),Percent Inhibition (Mean ± SEM) ([2]; 125 μg/mL),Percent Inhibition (Mean ± SEM) ([2]; 250 μg/mL),IC50 ([2]; α-amylase),IC50 [3],Percent Inhibition (Mean ± SEM) ([3]; 31.25 μg/mL),Percent Inhibition (Mean ± SEM) ([3]; 62.50 μg/mL),Percent Inhibition (Mean ± SEM) ([3]; 125 μg/mL),Percent Inhibition (Mean ± SEM) ([3]; 250 μg/mL),Percent Inhibition (Mean ± SEM) ([3]; 500 μg/mL),body weight ([5]; Day 1),body weight ([5]; Day 7),body weight ([5]; Day 14),body weight ([5]; Day 21),body weight ([5]; Day 28),Heart weight [6],Kidney weight [6],Liver weight [6],further results
"C[C@H]1O[C@H](O[C@H]2[C@H](O)[C@@H](O)[C@@H](O[C@H]3[C@H](O)[C@@H](O)C(O)O[C@@H]3CO)O[C@@H]2CO)[C@H](O)[C@@H](O)[C@@H]1N[C@H]1C=C(CO)[C@@H](O)[C@H](O)[C@H]1O (stereo partly drawn) [acarbose, reference compound]",91.01 ± 1.36%,,,,,,,,,,,,,,,,,,,,Percent Inhibition (Mean ± SEM) [1]: 92.65 ± 0.55%
"CCC(C=CC(C)C1CCC2C3C=CC4=CC(OC(C)=O)CCC4(C)C3CCC12C)C(C)C (stereo not drawn) [NtSt01, 3-β-Acetoxystigmasta-4,6,22-triene]",80.03 ± 2.11%,62.35 ± 1.78%,67.63 ± 2.51%,71.63 ± 0.92%,75.52 ± 0.96%,4.17 µg/mL,142.76 µg/mL,37.25 ± 2.66%,42.53 ± 0.69%,47.08 ± 2.41%,55.79 ± 0.92%,61.05 ± 2.05%,238 ± 0.33 g,240 ± 0.49 g,242 ± 1.04 g,245 ± 1.11 g,246 ± 0.11 g,1.04 ± 0.13 g,1.01 ± 0.15 g,9.83 ± 0.92 g,"potency relative to NtSt02 (from IC50 values) ([1]; α-glucosidase): three times more potent than NtSt02; potency relative to NtSt02 (from IC50 values) ([2]; α-amylase): eleven folds more potent than NtSt02; acute toxicity observation [4]: safe and no morbidity, mortality or irritation was observed; Pancreas weight [6]: 0.92 ± 0.12 g; LDL [7]: 48.85 ± 1.08; S.Cholesterol [7]: 77.45 ± 1.72; S.Triglycerides [7]: 125 ± 3.65; HDL [7]: 38.10 ± 1.64; S.Creatinine [8]: 0.6 ± 0.02 mg/dL; SGPT(ALT) [8]: 32 ± 0.25 U/L; S.ALK.Phosphatase [8]: 134 ± 2.33 U/L; S.bilurubin [8]: 0.72 ± 0.77 mg/dL"
"CC(C)CCC[C@@H](C)[C@H]1CC[C@H]2[C@@H]3C=CC4=C[C@@H](OC(=O)c5ccccc5)CC[C@]4(C)[C@H]3CC[C@]12C [NtSt02, 4,6-cholestadien-3beta-ol, benzoate]",74.99 ± 1.53%,46.84 ± 0.67%,53.10 ± 2.05%,60.04 ± 0.86%,64.32 ± 1.85%,46.73 µg/mL,223.43 µg/mL,28.52 ± 2.63%,33.08 ± 1.17%,42.99 ± 2.70%,52.01 ± 1.07%,59.12 ± 1.96%,,,,,,,,,
"COc1ccc(Cl)cc1C(=O)NCCc1ccc(S(=O)(=O)NC(=O)NC2CCCCC2)cc1 [Glibenclamide, glibenclamide, reference compound]",,,,,,,,,,,,,235 ± 1.36 g,236 ± 1.37 g,239 ± 0.67 g,244 ± 2.38 g,249 ± 3.18 g,0.90 ± 0.02 g,0.99 ± 0.16 g,9.21 ± 0.66 g,Pancreas weight [6]: 0.84 ± 0.21 g; LDL [7]: 34.16 ± 2.66; S.Cholesterol [7]: 59.98 ± 0.99; S.Triglycerides [7]: 112 ± 0.99; HDL [7]: 32.55 ± 2.35; S.Creatinine [8]: 0.43 ± 0.01 mg/dL; SGPT(ALT) [8]: 37 ± 1.11 U/L; S.ALK.Phosphatase [8]: 125 ± 1.22 U/L; S.bilurubin [8]: 0.81 ± 0.03 mg/dL
